According to patent US20070269492A1, “New product and use and manufacture thereof” (priority 2006, published 2007):
Like-named read-outs stand apart in the source and are kept apart here.

What was measured:
[1] = cited from earlier work
[2] = From the text: Absorption of nicotine from the oral cavity to the systemic circulation is dependent on the pH of the saliva, pH of the blood plasma and the pKa of nicotine, which is about 7.8. Assuming a pH of the saliva of 6.8, only about 10% of the nicotine will be in the free base form. Thus, in order to promote absorption of nicotine in a free base form, which is the form predominantly absorbed through the mucosa, the pH of the saliva must preferably be increased to at least pH 7 and to at most pH 10, more preferably to at least pH 8 and at most pH 9.5. At a pH of 8.8 about 90% of the nicotine will then be in the free base form.

CN1CCCC1c1cccnc1 (stereo not drawn) [nicotine, 3-(1-methyl-2-pyrrolidinyl)-pyridine]
single dose able to kill an adult [1]: Approximately 40 milligrams
nicotine in the free base form ([2]; pH 8.8): about 90%
nicotine in the free base form ([2]; saliva pH 6.8): about 10%
